Read-outs that look alike come from different tables or passages of the source.
What was measured:
Format in all cases: cell-based
[1] = system: N2a695 cells; assay: Aβ38, Aβ40, Aβ42 in conditioned media of N2a695 cells, MSD ELISA; conditions: N2a695 cell supernatant, 5 h, single experiment
Experimental: (§1) N2a695 were cultured in 1:1 OptiMem Reduced Serum Media (Life Technologies): Dulbecco’s Modified Eagle Medium ([+] 4.5 g/L D-glucose [+] L-Glutamine; [−] Sodium pyruvate (Life Technologies) supplemented with 5% fetal bovine serum, 0.4% Penstrep and 0.4% Geneticin and incubated at 37°C in 5% CO2. Antibodies were obtained from The Laboratory of Molecular and Cellular Neuroscience at The Rockefeller University. Human Aβ40 and Aβ42 ELISA plates (Life Technologies) and Plus MSD (Mesoscale Discovery) plates for Aβ Peptide (Aβ38, Aβ40 and Aβ42) Panel 1 (6E10) Kit (Catalog number K15200G) were obtained from Thermo Fisher, Life Technologies and Meso Scale Discovery.
(§2) N2a695 cells were used to screen all new compounds and in the follow-up studies with compounds found active in the preliminary screen. In a typical experiment, 6-well tissue culture plates (Corning) were seeded at 4.0 × 10^5–4.5 × 10^5 N2a695 cells/mL, 2 mL/well for overnight incubation. When cells were >95% confluent, media were exchanged with fresh media containing 10 µM solutions of compounds or DMSO carrier alone and cells were incubated at 37°C in 5% CO2 for 5 h. Culture media were collected and soluble Aβ concentrations in the media were determined by ELISA or MSD plates for human Aβ peptides as per manufacturer instructions. Signals for Aβ were measured using Perkin Elmer Envision and SQ120 MSD ELISA reader. Follow-up studies with N2a695 cells were performed similarly.
Similarly, we evaluated all IMTi-1 and IMTi-2 analogs, including the Boc-protected compounds, using N2a695 cells. […] To further examine the activities of the active analogs and whether IMTi’s has any bias on amyloidogenic vs. nonamyloidogenic cleavage of APP, we retested dozens of IMTi-1 and 2 analogs, including several found active in the screening assay and some tested for the first time using N2a695 cells as above, and performed MSD ELISA of the conditioned media to measure Aβ40, Aβ38, and Aβ42 peptides simultaneously.

[2] = system: N2a695 cells; assay: as above; conditions: N2a695 cell supernatant, 5 h, single experiment; remark: listed apart in the source
[3] = system: N2a695 cells; assay: Screening of Aβ production in N2a695 cells (Aβ ELISA of cell supernatants); conditions: N2a695 cells; for Aβ production in the screen (Fig. S1) / Aβ40 levels: 10 µM
Experimental: as §1, §2
Specifically, we exposed N2a695 cells to increasing concentrations of each compound and measured the production of Aβ38, 40, and 42. […] Remarkably, this occurs for all Aβ peptides tested shorter than 40 amino acids (Figure 2C). Moreover, for some compounds that modulate γ-secretase activity most conspicuously at 5 μM, this effect vanishes at 10 μM, relative to controls (Figure 2B, C). […]

SMILES: Cc1ccccc1Nc1nccc(-c2cncc(NC(=O)c3ccc(C4CCCNC4)cc3)c2)n1 (stereo not drawn) [Compound 1L]
- activity at 10 µM ([1]; read-out: % Aβ38 of DMSO ctrl): 52%
- activity at 10 µM ([1]; read-out: % Aβ40 of DMSO ctrl): 21%
- activity at 10 µM ([1]; read-out: % Aβ42 of DMSO ctrl): 17%
- activity at 5 µM ([2]; read-out: % Aβ38 of DMSO ctrl): 107%
- activity at 5 µM ([2]; read-out: % Aβ40 of DMSO ctrl): 48%
- activity at 5 µM ([2]; read-out: % Aβ42 of DMSO ctrl): 43%

SMILES: Cc1ccccc1Nc1nccc(-c2cccc(NC(=O)c3ccc(CN4CCN(C)CC4)cc3)c2)n1 [Compound 1a]
- activity at 10 µM ([1]; read-out: % Aβ38 of DMSO ctrl): 86%
- activity at 10 µM ([1]; read-out: % Aβ40 of DMSO ctrl): 40%
- activity at 10 µM ([1]; read-out: % Aβ42 of DMSO ctrl): 35%
- activity at 5 µM ([2]; read-out: % Aβ38 of DMSO ctrl): 105%
- activity at 5 µM ([2]; read-out: % Aβ40 of DMSO ctrl): 57%
- activity at 5 µM ([2]; read-out: % Aβ42 of DMSO ctrl): 49%

SMILES: Cc1ccccc1Nc1nccc(-c2cncc(NC(=O)c3ccc(CN4CCNCC4)cc3)c2)n1 [Compound 1b]
- activity at 10 µM ([1]; read-out: % Aβ38 of DMSO ctrl): 61%
- activity at 10 µM ([1]; read-out: % Aβ40 of DMSO ctrl): 34%
- activity at 10 µM ([1]; read-out: % Aβ42 of DMSO ctrl): 33%
- activity at 5 µM ([2]; read-out: % Aβ38 of DMSO ctrl): 95%
- activity at 5 µM ([2]; read-out: % Aβ40 of DMSO ctrl): 56%
- activity at 5 µM ([2]; read-out: % Aβ42 of DMSO ctrl): 53%

SMILES: Cc1ccccc1Nc1nccc(-c2cncc(NC(=O)c3ccc(CCN(C)C)cc3)c2)n1 [Compound 1e]
- activity at 10 µM ([1]; read-out: % Aβ38 of DMSO ctrl): 91%
- activity at 10 µM ([1]; read-out: % Aβ40 of DMSO ctrl): 46%
- activity at 10 µM ([1]; read-out: % Aβ42 of DMSO ctrl): 44%
- activity at 5 µM ([2]; read-out: % Aβ38 of DMSO ctrl): 99%
- activity at 5 µM ([2]; read-out: % Aβ40 of DMSO ctrl): 57%
- activity at 5 µM ([2]; read-out: % Aβ42 of DMSO ctrl): 54%

SMILES: Cc1ccccc1Nc1nccc(-c2cncc(NC(=O)c3ccc(CNCC(C)(C)C)cc3)c2)n1 [Compound 1h]
- activity at 10 µM ([1]; read-out: % Aβ38 of DMSO ctrl): 80%
- activity at 10 µM ([1]; read-out: % Aβ40 of DMSO ctrl): 43%
- activity at 10 µM ([1]; read-out: % Aβ42 of DMSO ctrl): 43%
- activity at 5 µM ([2]; read-out: % Aβ38 of DMSO ctrl): 106%
- activity at 5 µM ([2]; read-out: % Aβ40 of DMSO ctrl): 64%
- activity at 5 µM ([2]; read-out: % Aβ42 of DMSO ctrl): 58%

SMILES: Cc1ccccc1Nc1nccc(-c2cccc(NC(=O)c3ccc(CN(CC(C)(C)C)C(=O)OC(C)(C)C)cc3)c2)n1 [Compound 1i-Boc]
- Aβ production in the screen (Fig. S1) [3]: increase in Aβ production

SMILES: Cc1ccccc1Nc1nccc(-c2cccc(NC(=O)c3ccc(CNCC(C)(C)C)cc3)c2)n1 [Compound 1i]
- activity at 10 µM ([1]; read-out: % Aβ38 of DMSO ctrl): 85%
- activity at 10 µM ([1]; read-out: % Aβ40 of DMSO ctrl): 41%
- activity at 10 µM ([1]; read-out: % Aβ42 of DMSO ctrl): 46%
- activity at 5 µM ([2]; read-out: % Aβ38 of DMSO ctrl): 106%
- activity at 5 µM ([2]; read-out: % Aβ40 of DMSO ctrl): 56%
- activity at 5 µM ([2]; read-out: % Aβ42 of DMSO ctrl): 58%

SMILES: Cc1ccccc1Nc1nccc(-c2cncc(NC(=O)c3ccc(CNC4CCCCC4)cc3)c2)n1 [Compound 1j]
- activity at 10 µM ([1]; read-out: % Aβ38 of DMSO ctrl): 123%
- activity at 10 µM ([1]; read-out: % Aβ40 of DMSO ctrl): 73%
- activity at 10 µM ([1]; read-out: % Aβ42 of DMSO ctrl): 65%
- activity at 5 µM ([2]; read-out: % Aβ38 of DMSO ctrl): 112%
- activity at 5 µM ([2]; read-out: % Aβ40 of DMSO ctrl): 83%
- activity at 5 µM ([2]; read-out: % Aβ42 of DMSO ctrl): 75%

SMILES: Cc1ccccc1Nc1nccc(-c2cccc(NC(=O)c3ccc(CN(C(=O)OC(C)(C)C)C4CCCCC4)cc3)c2)n1 [Compound 1k-Boc]
- Aβ production in the screen (Fig. S1) [3]: increase in Aβ production

SMILES: Cc1ccccc1Nc1nccc(-c2cccc(NC(=O)c3ccc(CNC4CCCCC4)cc3)c2)n1 [Compound 1k]
- activity at 10 µM ([1]; read-out: % Aβ38 of DMSO ctrl): 92%
- activity at 10 µM ([1]; read-out: % Aβ40 of DMSO ctrl): 38%
- activity at 10 µM ([1]; read-out: % Aβ42 of DMSO ctrl): 38%
- activity at 5 µM ([2]; read-out: % Aβ38 of DMSO ctrl): 120%
- activity at 5 µM ([2]; read-out: % Aβ40 of DMSO ctrl): 60%
- activity at 5 µM ([2]; read-out: % Aβ42 of DMSO ctrl): 56%

SMILES: Cc1ccccc1Nc1nccc(-c2cncc(NC(=O)c3ccc(C4CCCN(C)C4)cc3)c2)n1 (stereo not drawn) [Compound 1n]
- activity at 10 µM ([1]; read-out: % Aβ38 of DMSO ctrl): 95%
- activity at 10 µM ([1]; read-out: % Aβ40 of DMSO ctrl): 42%
- activity at 10 µM ([1]; read-out: % Aβ42 of DMSO ctrl): 38%
- activity at 5 µM ([2]; read-out: % Aβ38 of DMSO ctrl): 112%
- activity at 5 µM ([2]; read-out: % Aβ40 of DMSO ctrl): 63%
- activity at 5 µM ([2]; read-out: % Aβ42 of DMSO ctrl): 56%

SMILES: Cc1ccc(Nc2nccc(-c3ccc(CNC4CCCCC4)cc3)n2)cc1NC(=O)c1cccnc1 [Compound 2b]
- activity at 10 µM ([1]; read-out: % Aβ38 of DMSO ctrl): 74%
- activity at 10 µM ([1]; read-out: % Aβ40 of DMSO ctrl): 71%
- activity at 10 µM ([1]; read-out: % Aβ42 of DMSO ctrl): 74%
- activity at 5 µM ([2]; read-out: % Aβ38 of DMSO ctrl): 93%
- activity at 5 µM ([2]; read-out: % Aβ40 of DMSO ctrl): 90%
- activity at 5 µM ([2]; read-out: % Aβ42 of DMSO ctrl): 88%

SMILES: Cc1ccc(Nc2nccc(-c3ccc(CN4CCN(C)CC4)cc3)n2)cc1NC(=O)c1cccnc1 [IMTi-2]
- Aβ40 levels [3]: 68%
- Activity in Aβ production assays [3]: active

SMILES: Cc1ccc(CN2CCN(Cc3ccc(C(=O)Nc4cccnc4)cc3)CC2)cc1Nc1ncccn1 [IMTi-3]
- Aβ40 levels [3]: 93%
- Activity in Aβ production assays [3]: inactive

— PMC11493595, “Stretching the structural envelope of imatinib to reduce β-amyloid production by modulating both β- and γ-secretase cleavages of APP” (Frontiers in Chemistry, 2024)
